Laboratory results reported in patent US20120295923A1, “Aminocyclohexanes and Aminotetrahydropyrans and Related Compounds As Gamma-Secretase Modulators” (PFIZER INC., priority 2010, published 2012).
Structures can show the parent of a compound that is named as a salt. Where two headings read alike, the source gives them in different places.

Tested on: γ-secretase; production of amyloid beta protein Aβ(1-42)
Assay: Cell-Based γ-Secretase Assay with ELISA Readout
Conditions: human WT-APP overexpressing CHO cells
Experimental: The ability of compounds to modulate production of amyloid beta protein A6(1-42) was determined using human WT-APP overexpressing CHO cells. Cells were plated at 22,000 cells/100 μL well in 96 well tissue culture treated, clear plates (Falcon) in DMEM/F12 based medium and incubated for 24 hours at 37° C. Compounds for testing were diluted in 100% DMSO to achieve an eleven points, half log, dose response for IC50 determinations. Compounds were added in fresh medium to achieve 1% final DMSO. Appropriate vehicle and inhibitor controls were added to obtain maximum and minimum inhibition values for the assay before the plates were incubated for about 24 hours at 37° C.
Coating of ELISA assay plates was initiated by addition of 50 μL/well of an in-house Aβ(1-42) specific antibody at (4 μg/mL) in 0.1 M NaHCO3 (pH 9.0) into black 384-well Maxisorp® plates (Nunc) and incubated overnight at 4° C. The capture antibody was then aspirated from the ELISA assay plates and 100 μL/well of Blocking Buffer (Dulbecco's PBS, 1.5% BSA (Sigma A7030)) added. Ambient temperature incubation was allowed to proceed for a minimum of two hours before washing 2×100 μL with Wash Buffer (Dulbecco's PBS, 0.05% Tween 20). Assay Buffer (Dulbecco's PBS, 1.0% BSA (Sigma A7030), 0.05% Tween 20) 20 μL/well was then added.
After incubation overnight at 37° C., 5% CO2, 40 μL (in duplicate) of experimental conditioned media were transferred into wells of the blocked ELISA plates containing the capture antibody, followed by overnight incubation at 4° C.
After overnight incubation of the ELISA assay plates at 4° C., unbound Aβ peptides were removed thorough (4×100 μL) washes with Wash Buffer. Europium (Eu) labeled (custom labeled, Perkin Elmer) Aβ(1-16) 6e10 Monoclonal Antibody (Covance #SIG-39320 was added, (50 μL/well Eu-6e10 @ 1:5000, 20 uM EDTA) in Assay Buffer. Incubation at ambient temperature for a minimum of 2 hours was followed by (4×100 μL) washes with Wash Buffer, before 50 μL/well of Delfia Enhancement Solution (PerkinElmer) was added. Following a one hour ambient temperature incubation, the plates were read on an EnVision plate reader (PerkinElmer) using standard DELFIA TRF settings. Data analysis including inhibitory IC50 determination was performed using nonlinear regression fit analysis (in-house software) and the appropriate plate mean values for the maximum and minimum inhibition controls.

[1] = footnote 8: single determination, read-out: Aβ 42B IC50 (nM) (Geometric Mean of 2-8 Determinations)
[2] = geometric mean of 2-4 determinations unless otherwise indicated (footnote 10: 6-8; footnote 14: single determination), read-out: Aβ 42B IC50

IC50 [1] [nM]	IC50 [2] [nM]	SMILES	also measured
155	–	O=C(O)C[C@@H]1CC[C@@H](N(Cc2ccccc2F)CC2CCCC2)[C@H](c2ccc(C(F)(F)F)cc2)C1 [Example 27, {(1R,3S,4R)-4-[(cyclopentyl-methyl)(2-fluorobenzyl)amino]-3-[4-(trifluoromethyl)phenyl]cyclohexyl} acetic acid]	–
435	–	CC1(CN(CC2CCCC2)[C@@H]2CC[C@@H](CC(=O)O)C[C@H]2c2ccc(C(F)(F)F)cc2)CCCC1 [Example 21, {(1R,3S,4R)-4-{(cyclopentyl-methyl)[(1-methylcyclo-pentyl)methyl]amino}-3-[4-(trifluoromethyl)phenyl]cyclohexyl} acetic acid]	–
–	2550	N#Cc1ccc([C@@H]2O[C@H](CC(=O)O)CC[C@H]2N(CC2CCCC2)CC2CCCC2)cc1 [Example 46, [(2S,5R,6S)-5-[bis(cyclopentylmethyl)amino]-6-(4-cyanophenyl)tetrahydro-2H-pyran-2-yl]acetic acid, ammonium salt]	–
868	–	CC1CN([C@@H]2CC[C@@H](CC(=O)O)C[C@H]2c2ccc(C(F)(F)F)cc2)CC2(CCCCC2)C1 (stereo partly drawn) [Example 23, {(1R,3S,4R)-4-(4-methyl-2-azaspiro[5.5]undec-2-yl)-3-[4-(trifluoromethyl)phenyl]cyclohexyl} acetic acid]	–
236	–	CC(C)CCN(CC1CCCCC1)[C@@H]1CC[C@@H](CC(=O)O)C[C@H]1c1ccc(C(F)(F)F)cc1 [Example 13, {(1R,3S,4R)-4-[(cyclohexylmethyl) (3-methylbutyl)amino]-3-[4-(trifluoromethyl)phenyl]cyclohexyl} acetic acid]	–
–	1970	O=C(O)C[C@@H]1CC[C@@H](N(Cc2cscn2)CC2CCCC2)[C@H](c2ccc(C(F)(F)F)cc2)C1 [Example 42, {(1R,3S,4R)-4-[(cyclopentylmethyl)(1,3-thiazol-4-ylmethyl)amino]-3-[4-(trifluoromethyl)phenyl]cyclohexyl}acetic acid, trifluoroacetate salt]	–
–	309	COc1cccc(F)c1CN(CC1(F)CCCCC1)[C@@H]1CC[C@@H](CC(=O)O)C[C@H]1c1ccc(C(F)(F)F)cc1 [Example 58, {(1R,3S,4R)-4-{[(1-fluorocyclohexyl)methyl](2-fluoro-6-methoxybenzyl)amino}-3-[4-(trifluoromethyl)phenyl]cyclohexyl}acetic acid, trifluoroacetate salt]	–
107	–	O=C(O)C[C@@H]1CC[C@@H](N(CC2CCCCC2)CC2CCCCC2)[C@H](c2ccc(C(F)(F)F)cc2)C1 [Example 15, {(1R,3S,4R)-4-[bis(cyclohexylmethyl)amino]-3-[4-(trifluoro-methyl)phenyl]cyclohexyl}acetic acid]	–
–	959	Cc1nc(CN(CC2CCCC2)[C@@H]2CC[C@@H](CC(=O)O)C[C@H]2c2ccc(C(F)(F)F)cc2)co1 [Example 53, {(1R,3S,4R)-4-{(cyclopentylmethyl)[(2-methyl-1,3-oxazol-4-yl)methyl]amino}-3-[4-(trifluoromethyl)phenyl]cyclohexyl}acetic acid, ammonium salt]	–
–	190	CC(C)CN(CC1(F)CCCCC1)[C@@H]1CC[C@@H](CC(=O)O)C[C@H]1c1ccc(C(F)(F)F)cc1 [Example 52, {(1R,3S,4R)-4-{[(1-fluorocyclohexyl)methyl] (isobutyl)amino}-3-[4-(trifluoromethyl)phenyl]cyclohexyl}acetic acid, trifluoroacetate salt]	–
–	2170	CC(C)(C#N)CCN(CC1CCCC1)[C@@H]1CC[C@@H](CC(=O)O)C[C@H]1c1ccc(C(F)(F)F)cc1 [Example 37, {(1R,3S,4R)-4-[(3-cyano-3-methylbutyl)(cyclopentylmethyl)amino]-3-[4-(trifluoromethyl)phenyl]cyclohexyl}acetic acid, trifluoroacetate salt]	–
193	–	O=C(O)C[C@@H]1CC[C@@H](N2CC3(CCCC3)CC3(CCCC3)C2)[C@H](c2ccc(C(F)(F)F)cc2)C1 [Example 29, {(1R,3S,4R)-4-(13-azadispiro [4.1.4.3]tetradec-13-yl)-3-[4-(trifluoromethyl)phenyl]cyclohexyl} acetic acid]	–
–	223	O=C(O)C[C@@H]1CC[C@@H](N(CC2=Cc3ccccc3OC2)CC2(F)CCCCC2)[C@H](c2ccc(C(F)(F)F)cc2)C1 [Example 62, {(1R,3S,4R)-4-{(2H-chromen-3-ylmethyl)[(1-fluorocyclohexyl)methyl]amino}-3-[4-(trifluoromethyl)phenyl]cyclohexyl}acetic acid, trifluoroacetate salt]	–
9190	–	Cc1cc(Cl)ccc1[C@@H]1OC(CC(=O)O)CC[C@H]1N(CC1CCCC1)CC1CCCC1 (stereo in doubt) [Example 24, [(2R,5R,6S)-5-[bis(cyclopentyl-methyl)amino]-6-(4-chloro-2-methylphenyl)tetrahydro-2H-pyran-2-yl]acetic acid]	–
2630	–	O=C(O)C[C@@H]1CC[C@@H](N(CC2CCCC2)CC2CCCC2)[C@H](c2ccc(F)cc2)C1 [Example 18, [(1R,3S,4R)-4-[bis(cyclopentyl-methyl)amino]-3-(4-fluorophenyl)cyclohexyl]acetic acid]	–
–	1300	O=C(O)C[C@@H]1CC[C@@H](N(CC2CCCCC2)C2CCOCC2)[C@H](c2ccc(C(F)(F)F)cc2)C1 [Example 31, {(1R,3S,4R)-4-[(cyclohexylmethyl)(tetrahydro-2H-pyran-4-yl)amino]-3-[4-(trifluoromethyl)phenyl]cyclohexyl}acetic acid, ammonium salt]	–
–	621	O=C(O)C[C@@H]1CC[C@@H](N(CCC2CCCCC2)CC2CCCC2)[C@H](c2ccc(C(F)(F)F)cc2)C1 [Example 40, {(1R,3S,4R)-4-[(2-cyclohexylethyl)(cyclopentyl-methyl)amino]-3-[4-(trifluoromethyl)phenyl]cyclohexyl}acetic acid, trifluoroacetate salt]	–
–	441	O=C(O)C[C@@H]1CC[C@@H](N(CCC(F)(F)F)CC2CCCC2)[C@H](c2ccc(Cl)cc2)C1 [Example 48, {(1R,3S,4R)-3-(4-chlorophenyl)-4-[(cyclopentylmethyl)(3,3,3-trifluoropropyl)amino]cyclohexyl}acetic acid, trifluoroacetate salt]	–
470	–	CC(C)CCN(CCC(F)(F)F)[C@@H]1CC[C@@H](CC(=O)O)C[C@H]1c1ccc(C(F)(F)F)cc1 [Example 11, {(1R,3S,4R)-4-[(3-methylbutyl) (3,3,3-trifluoropropyl)amino]-3-[4-(trifluoromethyl)phenyl]cyclohexyl} acetic acid, hydrochloride salt]	–
–	–	O=C(O)C[C@@H]1CC[C@@H](N(CC2CCCC2)CC2CCCC2)[C@H](c2ccc(C(F)(F)F)cc2)O1 [Example 3, {(2S,5R,6S)-5-[bis(cyclopentylmethyl)amino]-6-[4-(trifluoromethyl)phenyl]tetrahydro-2H-pyran-2-yl}acetic acid]	IC50 (geometric mean of 2 determinations unless otherwise indicated (footnote 2: 6-14 determinations), read-out: Aβ 42B IC50): 357 nM
–	268	CC(C)CN(Cc1ccc(C(C)(C)C)cc1)[C@@H]1CC[C@@H](CC(=O)O)C[C@H]1c1ccc(C(F)(F)F)cc1 [Example 66, {(1R,3S,4R)-4-[(4-tert-butylbenzyl)(isobutyl)amino]-3-[4-(trifluoromethyl)phenyl]cyclohexyl}acetic acid, trifluoroacetate salt]	–
–	607	O=C(O)C[C@@H]1CC[C@@H](N(Cc2ccc3c(c2)CCO3)CC2(F)CCCCC2)[C@H](c2ccc(C(F)(F)F)cc2)C1 [Example 61, {(1R,3S,4R)-4-{(2,3-dihydro-1-benzofuran-5-ylmethyl)[(1-fluorocyclohexyl)methyl]amino}-3-[4-(trifluoromethyl)phenyl]cyclohexyl}acetic acid, trifluoroacetate salt]	–
–	516	CC(C)(C)CCN(CC1CCCC1)[C@@H]1CC[C@@H](CC(=O)O)C[C@H]1c1ccc(C(F)(F)F)cc1 [Example 35, {(1R,3S,4R)-4-[(cyclopentylmethyl)(3,3-dimethylbutyl)amino]-3-[4-(trifluoromethyl)phenyl]cyclohexyl}acetic acid, ammonium salt]	–
103	–	CC(C)CCN(CC1(F)CCCCC1)[C@@H]1CC[C@@H](CC(=O)O)C[C@H]1c1ccc(C(F)(F)F)cc1 [Example 14, {(1R,3S,4R)-4-{[(1-fluorocyclo-hexyl)methyl](3-methylbutyl)amino}-3-[4-(trifluoromethyl)phenyl]cyclohexyl} acetic acid]	–
